Assay results from US11053205B2, “Phenazine derivatives as antimicrobial agents” (University of Florida Research Foundation, Incorporated, priority 2017, dated 2021).
Values after ≈ are worked out from the molar mass of the structure shown. Like-named read-outs stand apart in the source and are kept apart here. Marks after values point to notes of the source that are not given here.

Experiments:
[1] = system: human red blood cells
[2] = system: MRSA BAA-1707; assay: MIC, broth microdilution (CLSI); conditions: 16 to 18 hours at 37° C.; 0.10 = lowest concentration tested
[3] = system: MRSE 35984; assay: MIC, broth microdilution (CLSI); conditions: for MRSE 35984 MIC: 16 to 18 hours at 37° C.
[4] = system: VRE 700221; assay: MIC, broth microdilution (CLSI); conditions: for VRE 700221 MIC: 16 to 18 hours at 37° C.
[5] = system: MRSA BAA-1707 biofilms; assay: Calgary Biofilm Device (CBD) assay, MBC/MBEC; conditions: for MRSA BAA-1707 MBEC / MRSA BAA-1707 MBC: CBD; for MRSA BAA-1707 MBEC: biofilm eradication; for MRSA BAA-1707 MBC: planktonic killing
[6] = system: MRSE 35984 biofilms; assay: Calgary Biofilm Device (CBD) assay, MBC/MBEC; conditions: CBD; for MRSE 35984 MBEC: biofilm eradication; for MRSE 35984 MBC: planktonic killing
[7] = system: HeLa cells
[8] = system: VRE 700221 biofilms; assay: Calgary Biofilm Device (CBD) assay, MBC/MBEC; conditions: CBD; for VRE 700221 MBEC: biofilm eradication; for VRE 700221 MBC: planktonic killing
[9] = system: MRSA-2 biofilms; assay: Calgary Biofilm Device (CBD) assay, MBC/MBEC; conditions: for MRSA-2 MBEC: biofilm eradication; for MBC: Staphylococcus aureus, MRSA, read-out: MRSA-2 MBC

Row | Compound | Hemolysis at 200 μM [1] | MRSA BAA-1707 MIC [2] | MRSE 35984 MIC [3] | VRE 700221 MIC [4] | MRSE 35984 MBEC [6] | MRSE 35984 MBC [6] | other results
1 | CCCc1ccc2nc3c(O)c(Br)cc(Br)c3nc2c1 [Compound 54A] | 2.1% | 0.1^b μM | 0.15^a μM | 3.13 µM | 37.5 µM | 25 µM | MRSA BAA-1707 MBEC [5]: 75 µM; MRSA BAA-1707 MBC [5]: 37.5 µM
2 | Cc1ccc2nc3c(Br)cc(Br)c(O)c3nc2c1C [Compound 57A] |  | >100 ^ μM | >100 µM | >100 µM |  |  | 
3 | CCc1cccc2nc3c(Br)cc(Br)c(O)c3nc12 [Compound 58A] |  | >100 ^ μM | >100 µM | >100 µM |  |  | 
4 | Cc1cc2nc3c(O)c(Br)cc(Br)c3nc2c(C)c1C [Compound 59A] | 1.3% | 0.59^a μM | 0.1^b μM |  | 5 µM | 25 µM | MRSA BAA-1707 MBEC [5]: 75 µM; MRSA BAA-1707 MBC [5]: 150 µM
5 | CCOc1ccc2nc3c(O)c(Br)cc(Br)c3nc2c1 [Compound 60A] |  | >100 ^ μM | 18.8^a μM | >100 µM |  |  | 
6 | CCOC(=O)c1ccc2nc3c(O)c(Br)cc(Br)c3nc2c1 [Compound 62A] |  |  |  | 2.35^a μM |  |  | 
7 | CCCc1cn(Cc2ccc3nc4c(OC(C)=O)c(Br)cc(Br)c4nc3c2)nn1 [Compound 74A] |  | 100 ^ μM |  | >100 µM |  |  | 
8 | COCCOCCOCC(=O)Oc1c(Br)cc(Br)c2nc3ccccc3nc12 [Compound 75A] | 1.2% | 0.59^a μM |  | 3.13 µM | 37.5 µM | 9.38 µM | IC50 [7]: > 100 µM; MRSA BAA-1707 MBEC [5]: 75 µM; MRSA BAA-1707 MBC [5]: 18.8 µM
9 | COCCOCCOCCOCCOC(=O)Oc1c(Br)cc(Br)c2nc3cc(Cl)ccc3nc12 [Compound 77A] | 1.1% | 0.0005^a μM | 0.1^b μM | 0.1^b μM | 18.8 µM | 9.38 µM | IC50 [7]: > 100 µM
10 | COCCOCCOCCOCCOC(=O)Oc1c(Br)cc(Br)c2nc3cc(Oc4ccccc4)ccc3nc12 [Compound 78A] | ≤1% | 0.1^b μM | 0.1^b μM | 0.3^a μM |  |  | MRSA BAA-1707 MBEC [5]: 4.69 µM; MRSA BAA-1707 MBC [5]: 18.8 µM
11 | OC[C@H]1O[C@@H](Oc2c(Br)cc(Br)c3nc4ccccc4nc23)[C@H](O)[C@@H](O)[C@@H]1O [Compound 79A] | ≤1% |  |  |  |  |  | 
12 | COCCOCCOCCOC(=O)OCOc1c(Br)cc(Br)c2nc3ccccc3nc12 [Compound 80A] | 1.4% | >100 µM | >100 µM | >100 µM |  |  | 
13 | O=C(OCCOCCOCCOCCO)OCOc1c(Br)cc(Br)c2nc3ccccc3nc12 [Compound 82A] | 2.7% | >100 µM | >100 µM | >100 µM |  |  | IC50 [7]: > 100 µM
14 | O=C(OCCSSCCOC(=O)c1ccccc1)OCOc1c(Br)cc(Br)c2nc3ccccc3nc12 [Compound 85A] | 1.3% | >100 µM | >100 µM | >100 µM |  |  | IC50 [7]: > 100 µM
15 | CC1=C(C)C(=O)C(COC(=O)OCOc2c(Br)cc(Br)c3nc4ccccc4nc23)=C(C)C1=O [Compound 86A] | ≤1% | 2.35^a μM | 2.35^a μM | 9.38^a μM | 150 µM | 37.5 µM | MRSA BAA-1707 MBC [5]: 25 µM; VRE 700221 MBEC [8]: 9.38 µM; VRE 700221 MBC [8]: 12.5 µM
16 | CC1=C(C)C(=O)C(COC(=O)OCOc2c(Br)cc(Br)c3nc4cc(Cl)ccc4nc23)=C(C)C1=O [Compound 87A] |  | 0.15^a μM |  | 1.56 µM | 25 µM | 12.5 µM | MRSA BAA-1707 MBC [5]: 6.25 µM; VRE 700221 MBEC [8]: 3.13^c/3.13^c μM; VRE 700221 MBC [8]: 3.13^c/3.13^c μM
17 | C[C@H]1c2cccc(O)c2C(=O)C2=C(O)[C@]3(O)C(=O)C(C(N)=O)=C(O)[C@@H](N(C)C)[C@@H]3[C@@H](O)[C@@H]21 [Doxycycline] |  |  |  |  |  |  | MRSA-2 MBEC ([9]; CBD): 46.9 µM; MBC [9]: 2 µM (≈ 0.889 µg/mL)
18 | Cc1ccc2nc3c(O)c(Br)cc(Br)c3nc2c1C [HP 1-19] |  |  |  |  |  |  | Hemolysis at 200 μM ([1]; human, 1 h, 200 μM, pH 7.2): 5.3%; MIC ([3]; Staphylococcus epidermidis, MRSE, read-out: MRSE 35984 MIC, 16 to 18 hours at 37° C.): 0.3 µM (≈ 0.115 µg/mL); MIC ([4]; Enterococcus, VRE, read-out: VRE 700221 MIC, 16 to 18 hours at 37° C.): 0.15 µM (≈ 0.0573 µg/mL)
19 | CC(=O)N[C@@H](CS)C(=O)O [NAC, reference compound] |  |  |  |  | >2000/>2000 μM | >2000/>2000 μM | MRSA-2 MBEC ([9]; CBD): >2000/>2000 μM; MRSA-2 MBC ([9]; CBD, planktonic killing): >2000/>2000 μM; VRE 700221 MBEC [8]: >2000 />2000 μM; VRE 700221 MBC [8]: >2000 />2000 μM
20 | NC(=O)c1cnccn1 [Pyrazinamide] |  |  |  |  |  |  | MRSA-2 MBEC ([9]; CBD): >2000/>2000 μM; MBC [9]: > 2000 µM
21 | CCCc1cn(Cc2ccc3nc4c(OC(C)=O)c(Br)cc(Br)c4nc3c2)nn1 [compound 74] |  |  | 18.8 µM |  |  |  | 
22 | CC(=O)NC[C@H]1CN(c2ccc(N3CCOCC3)c(F)c2)C(=O)O1 [linezolid, reference compound] |  | 12.5 ^ μM |  |  |  |  | Hemolysis at 200 μM ([1]; human, 1 h, 200 μM, pH 7.2): ≤1%; MBC ([5]; Staphylococcus aureus, read-out: MRSA BAA-1707 MBC): 31.3 µM (≈ 10.6 µg/mL); biofilm eradication activities against MRSA biofilms ([5]; at 2,000 μM (highest concentration tested)): no biofilm eradication activities
